These results are taken from ChEMBL document CHEMBL5465560, “Selectivity Literature for EUbOPEN Chemogenomic Library” (2024).

Each structure is given as a SMILES string.

The target in assay [1] is T1, Activin receptor type-1B (Homo sapiens) (UniProt P36896).
T1 sequence (whole entry): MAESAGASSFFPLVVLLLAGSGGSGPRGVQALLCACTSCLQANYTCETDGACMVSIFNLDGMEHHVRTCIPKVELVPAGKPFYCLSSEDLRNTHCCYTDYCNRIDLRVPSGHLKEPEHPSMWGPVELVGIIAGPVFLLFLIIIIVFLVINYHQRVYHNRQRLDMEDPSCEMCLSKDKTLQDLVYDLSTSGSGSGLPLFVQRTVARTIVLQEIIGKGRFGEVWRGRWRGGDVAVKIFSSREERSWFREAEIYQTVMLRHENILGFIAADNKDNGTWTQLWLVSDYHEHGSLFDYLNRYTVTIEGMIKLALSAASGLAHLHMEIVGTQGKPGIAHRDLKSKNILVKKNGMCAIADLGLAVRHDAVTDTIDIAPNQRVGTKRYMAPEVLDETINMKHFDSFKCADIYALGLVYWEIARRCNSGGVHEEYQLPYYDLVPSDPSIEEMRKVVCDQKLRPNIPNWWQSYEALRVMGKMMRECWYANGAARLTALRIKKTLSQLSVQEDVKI
Put plainly: Selectivity interaction (Kinase panel (Z-LYTE Assay)) EUB0001632a ACVR1B. The settings on record: at 10 µM.

Assay [2] has as its target Cyclin-dependent kinase 8 (Homo sapiens, UniProt P49336). The settings on record: at 10 µM.
In another assay the target is Histamine H1 receptor (Homo sapiens, UniProt P35367). Put plainly: Selectivity interaction (Eurofins CEREP Diversity Profile (receptors and ion channels)) EUB0000279b HRH1. The conditions noted are these: at 10 µM.
In assay [3] the target is Tyrosine-protein kinase JAK1 (Homo sapiens, UniProt P23458). Put plainly: Selectivity interaction (KinomeScan (DiscoverX)) EUB0000666a JAK1. The conditions noted are these: at 10 µM.
Assay [4] has as its target T2, Serine/threonine-protein kinase TBK1 (Homo sapiens) (UniProt Q9UHD2).
T2 sequence (whole entry): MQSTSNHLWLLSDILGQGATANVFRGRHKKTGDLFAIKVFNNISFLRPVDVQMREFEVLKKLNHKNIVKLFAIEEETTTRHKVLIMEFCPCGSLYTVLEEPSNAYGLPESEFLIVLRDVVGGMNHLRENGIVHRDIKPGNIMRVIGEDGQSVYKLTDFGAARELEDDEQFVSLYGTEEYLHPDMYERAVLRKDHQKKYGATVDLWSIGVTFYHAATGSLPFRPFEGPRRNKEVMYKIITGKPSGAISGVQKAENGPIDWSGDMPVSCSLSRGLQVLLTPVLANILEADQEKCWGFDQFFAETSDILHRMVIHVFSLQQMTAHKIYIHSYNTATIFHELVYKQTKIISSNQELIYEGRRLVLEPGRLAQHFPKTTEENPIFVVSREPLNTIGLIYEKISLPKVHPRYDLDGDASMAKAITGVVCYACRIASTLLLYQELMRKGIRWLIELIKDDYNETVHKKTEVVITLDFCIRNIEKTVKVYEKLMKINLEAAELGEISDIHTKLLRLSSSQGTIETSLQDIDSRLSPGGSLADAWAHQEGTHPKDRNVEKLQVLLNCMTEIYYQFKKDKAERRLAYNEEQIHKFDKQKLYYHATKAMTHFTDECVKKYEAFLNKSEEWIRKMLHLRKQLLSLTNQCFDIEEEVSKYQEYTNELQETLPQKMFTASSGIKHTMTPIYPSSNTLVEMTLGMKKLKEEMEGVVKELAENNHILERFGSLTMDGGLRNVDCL
Put plainly: Selectivity interaction (ProQinase) EUB0000171b TBK1.

The target of assay [5] is T3, Receptor-interacting serine/threonine-protein kinase 1 (Homo sapiens) (UniProt Q13546).
T3 sequence (whole entry): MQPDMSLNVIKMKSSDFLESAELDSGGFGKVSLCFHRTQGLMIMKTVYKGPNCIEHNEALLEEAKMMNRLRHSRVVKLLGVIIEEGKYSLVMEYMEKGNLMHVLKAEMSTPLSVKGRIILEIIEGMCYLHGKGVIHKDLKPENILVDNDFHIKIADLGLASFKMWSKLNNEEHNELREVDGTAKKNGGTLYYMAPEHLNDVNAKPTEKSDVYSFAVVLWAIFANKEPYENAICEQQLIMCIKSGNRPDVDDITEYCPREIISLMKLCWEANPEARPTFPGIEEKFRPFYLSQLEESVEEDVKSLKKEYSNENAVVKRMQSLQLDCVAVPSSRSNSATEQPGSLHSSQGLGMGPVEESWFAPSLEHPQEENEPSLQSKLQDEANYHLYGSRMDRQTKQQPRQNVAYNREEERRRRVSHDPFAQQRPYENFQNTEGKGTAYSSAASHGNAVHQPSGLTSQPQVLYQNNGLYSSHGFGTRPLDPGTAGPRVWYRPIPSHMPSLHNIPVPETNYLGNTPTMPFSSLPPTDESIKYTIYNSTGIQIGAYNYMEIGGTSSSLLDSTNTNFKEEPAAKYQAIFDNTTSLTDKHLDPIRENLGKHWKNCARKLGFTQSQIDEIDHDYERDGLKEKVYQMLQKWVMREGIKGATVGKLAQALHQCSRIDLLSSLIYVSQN
Put plainly: Selectivity interaction (KinomeScan (DiscoverX)) EUB0000655a RIPK1. The settings on record: at 10 µM.

Assay [6] concerns the target Casein kinase I isoform epsilon (Homo sapiens, UniProt P49674). Put plainly: Selectivity interaction (KinomeScan (DiscoverX)) EUB0000618a CSNK1E. The conditions noted are these: at 10 µM.
Assay [7] has as its target Cyclin-dependent kinase 16 (Homo sapiens) (UniProt Q00536). As to the kind of experiment: Selectivity interaction (KinomeScan (DiscoverX)) EUB0001079a CDK16. The conditions noted are these: at 1 µM.
For assay [8], the target named is Receptor tyrosine-protein kinase erbB-4 (Homo sapiens, UniProt Q15303). As to the kind of experiment: Selectivity interaction (KinomeScan (DiscoverX)) EUB0000229b ERBB4. The settings on record: at 10 µM.
Receptor tyrosine-protein kinase erbB-4, sequence (Q15303 whole entry): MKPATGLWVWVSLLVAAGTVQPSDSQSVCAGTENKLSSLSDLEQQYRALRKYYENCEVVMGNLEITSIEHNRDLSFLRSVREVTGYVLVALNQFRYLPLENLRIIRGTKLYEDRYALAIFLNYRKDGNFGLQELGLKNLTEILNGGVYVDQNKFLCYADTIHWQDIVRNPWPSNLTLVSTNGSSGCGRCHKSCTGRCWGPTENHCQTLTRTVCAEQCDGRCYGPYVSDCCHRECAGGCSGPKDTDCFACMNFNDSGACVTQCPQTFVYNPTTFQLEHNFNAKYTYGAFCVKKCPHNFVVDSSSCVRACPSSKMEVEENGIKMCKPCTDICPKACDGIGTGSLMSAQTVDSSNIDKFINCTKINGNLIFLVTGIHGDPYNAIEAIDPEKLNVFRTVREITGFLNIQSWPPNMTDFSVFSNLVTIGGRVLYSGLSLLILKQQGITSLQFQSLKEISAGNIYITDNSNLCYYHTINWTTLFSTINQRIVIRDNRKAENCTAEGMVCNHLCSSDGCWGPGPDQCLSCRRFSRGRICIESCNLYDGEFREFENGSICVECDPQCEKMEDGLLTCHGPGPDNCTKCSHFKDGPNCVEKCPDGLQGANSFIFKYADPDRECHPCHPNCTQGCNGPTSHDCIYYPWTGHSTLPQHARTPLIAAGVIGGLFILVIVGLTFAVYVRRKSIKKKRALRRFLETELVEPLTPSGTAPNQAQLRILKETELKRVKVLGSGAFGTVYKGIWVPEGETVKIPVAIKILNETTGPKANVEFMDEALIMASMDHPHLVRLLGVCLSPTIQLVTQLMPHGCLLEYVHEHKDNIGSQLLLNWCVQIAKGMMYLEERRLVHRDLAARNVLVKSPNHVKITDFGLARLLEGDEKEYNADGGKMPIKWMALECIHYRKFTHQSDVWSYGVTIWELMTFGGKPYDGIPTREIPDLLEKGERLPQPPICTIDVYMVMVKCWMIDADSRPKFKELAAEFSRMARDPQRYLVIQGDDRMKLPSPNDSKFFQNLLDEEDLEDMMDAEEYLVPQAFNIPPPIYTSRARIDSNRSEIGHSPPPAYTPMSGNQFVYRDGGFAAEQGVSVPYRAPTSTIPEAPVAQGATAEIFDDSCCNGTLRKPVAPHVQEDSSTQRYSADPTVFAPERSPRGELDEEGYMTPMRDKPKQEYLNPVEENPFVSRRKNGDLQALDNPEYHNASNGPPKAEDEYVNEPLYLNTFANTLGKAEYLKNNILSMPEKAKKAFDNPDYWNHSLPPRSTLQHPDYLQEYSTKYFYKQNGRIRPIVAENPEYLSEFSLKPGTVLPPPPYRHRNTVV

Cyclin-dependent kinase 16 (Homo sapiens), sequence (Q00536 whole entry): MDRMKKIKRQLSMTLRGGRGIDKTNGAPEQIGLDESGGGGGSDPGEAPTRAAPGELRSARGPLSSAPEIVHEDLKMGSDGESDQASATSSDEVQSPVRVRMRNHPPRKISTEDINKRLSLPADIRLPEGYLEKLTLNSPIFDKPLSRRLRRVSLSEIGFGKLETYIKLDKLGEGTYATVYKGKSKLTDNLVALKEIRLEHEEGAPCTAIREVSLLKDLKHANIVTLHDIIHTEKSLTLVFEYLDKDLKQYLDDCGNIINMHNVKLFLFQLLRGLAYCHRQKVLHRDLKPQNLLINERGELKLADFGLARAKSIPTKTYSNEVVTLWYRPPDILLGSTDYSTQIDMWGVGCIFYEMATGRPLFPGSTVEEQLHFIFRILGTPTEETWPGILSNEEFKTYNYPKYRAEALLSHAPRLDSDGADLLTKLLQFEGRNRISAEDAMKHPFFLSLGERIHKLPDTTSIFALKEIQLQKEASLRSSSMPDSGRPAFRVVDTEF
Cyclin-dependent kinase 8, sequence (P49336 whole entry): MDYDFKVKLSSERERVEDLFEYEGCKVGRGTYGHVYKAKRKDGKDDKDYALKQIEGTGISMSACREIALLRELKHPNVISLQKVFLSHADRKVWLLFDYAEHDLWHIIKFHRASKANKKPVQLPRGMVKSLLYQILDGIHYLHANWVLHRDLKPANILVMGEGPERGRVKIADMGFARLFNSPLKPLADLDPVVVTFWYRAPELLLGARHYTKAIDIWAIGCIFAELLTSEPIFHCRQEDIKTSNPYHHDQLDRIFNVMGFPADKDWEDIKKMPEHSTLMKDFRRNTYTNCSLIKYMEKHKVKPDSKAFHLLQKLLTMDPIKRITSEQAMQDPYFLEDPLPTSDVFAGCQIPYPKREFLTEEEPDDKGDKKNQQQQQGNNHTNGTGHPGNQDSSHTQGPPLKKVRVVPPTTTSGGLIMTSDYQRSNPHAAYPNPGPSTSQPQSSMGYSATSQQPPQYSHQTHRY
Tyrosine-protein kinase JAK1, sequence (P23458 whole entry): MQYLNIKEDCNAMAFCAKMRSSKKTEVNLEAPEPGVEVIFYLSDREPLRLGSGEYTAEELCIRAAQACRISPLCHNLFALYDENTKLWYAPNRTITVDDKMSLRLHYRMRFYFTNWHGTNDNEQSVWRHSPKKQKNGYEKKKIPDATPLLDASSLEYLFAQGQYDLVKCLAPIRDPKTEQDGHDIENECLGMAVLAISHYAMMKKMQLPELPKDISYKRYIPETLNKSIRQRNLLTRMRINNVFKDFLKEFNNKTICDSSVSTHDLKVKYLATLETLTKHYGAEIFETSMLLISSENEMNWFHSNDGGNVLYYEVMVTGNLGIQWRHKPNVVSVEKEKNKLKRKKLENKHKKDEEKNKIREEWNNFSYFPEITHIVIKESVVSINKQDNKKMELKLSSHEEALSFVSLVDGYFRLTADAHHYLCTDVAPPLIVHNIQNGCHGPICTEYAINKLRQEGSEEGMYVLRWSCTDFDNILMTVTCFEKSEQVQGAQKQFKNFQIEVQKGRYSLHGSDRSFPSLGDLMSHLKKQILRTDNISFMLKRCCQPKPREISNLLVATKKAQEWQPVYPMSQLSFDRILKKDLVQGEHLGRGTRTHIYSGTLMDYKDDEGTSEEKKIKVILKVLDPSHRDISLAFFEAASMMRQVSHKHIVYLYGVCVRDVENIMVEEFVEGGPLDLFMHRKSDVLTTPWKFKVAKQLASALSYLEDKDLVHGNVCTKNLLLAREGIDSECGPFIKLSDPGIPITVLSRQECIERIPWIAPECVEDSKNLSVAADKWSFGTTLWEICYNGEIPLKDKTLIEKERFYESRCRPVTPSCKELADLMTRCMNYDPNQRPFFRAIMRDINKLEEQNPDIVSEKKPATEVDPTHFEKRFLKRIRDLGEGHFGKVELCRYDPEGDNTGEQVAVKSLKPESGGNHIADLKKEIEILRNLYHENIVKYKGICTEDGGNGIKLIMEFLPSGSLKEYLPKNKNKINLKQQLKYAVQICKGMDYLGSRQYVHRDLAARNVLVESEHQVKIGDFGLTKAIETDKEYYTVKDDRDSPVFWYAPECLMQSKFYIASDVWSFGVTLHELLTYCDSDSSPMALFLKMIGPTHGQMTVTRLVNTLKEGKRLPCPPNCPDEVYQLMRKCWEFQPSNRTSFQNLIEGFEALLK
Histamine H1 receptor, sequence (P35367 whole entry): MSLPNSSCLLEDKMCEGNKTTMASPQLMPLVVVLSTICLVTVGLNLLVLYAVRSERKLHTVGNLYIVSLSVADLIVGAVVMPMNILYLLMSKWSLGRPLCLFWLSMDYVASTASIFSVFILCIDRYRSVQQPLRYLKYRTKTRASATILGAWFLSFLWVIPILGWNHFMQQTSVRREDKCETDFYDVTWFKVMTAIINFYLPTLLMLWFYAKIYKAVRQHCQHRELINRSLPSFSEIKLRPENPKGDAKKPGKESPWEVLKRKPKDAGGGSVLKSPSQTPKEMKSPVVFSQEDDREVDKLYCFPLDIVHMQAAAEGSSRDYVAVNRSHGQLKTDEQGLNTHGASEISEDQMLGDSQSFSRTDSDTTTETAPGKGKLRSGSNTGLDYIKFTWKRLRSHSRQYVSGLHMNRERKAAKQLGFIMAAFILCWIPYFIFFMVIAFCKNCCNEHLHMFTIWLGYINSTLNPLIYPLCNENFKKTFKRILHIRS
Casein kinase I isoform epsilon, sequence (P49674 whole entry, looked up, canonical isoform): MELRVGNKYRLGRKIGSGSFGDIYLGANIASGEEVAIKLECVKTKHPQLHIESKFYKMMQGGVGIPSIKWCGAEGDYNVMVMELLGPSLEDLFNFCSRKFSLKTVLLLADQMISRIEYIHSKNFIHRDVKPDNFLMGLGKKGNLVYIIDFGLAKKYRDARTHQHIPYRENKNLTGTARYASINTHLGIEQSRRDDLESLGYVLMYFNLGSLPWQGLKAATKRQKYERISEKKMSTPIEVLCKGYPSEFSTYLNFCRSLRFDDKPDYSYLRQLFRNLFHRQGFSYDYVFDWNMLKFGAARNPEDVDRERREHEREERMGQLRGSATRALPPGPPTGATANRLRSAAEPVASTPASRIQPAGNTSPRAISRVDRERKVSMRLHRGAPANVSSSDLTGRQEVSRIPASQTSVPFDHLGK

Compound `Cn1cc(-n2cnc3c(NCc4nc5cc(Cl)c(Cl)cc5[nH]4)nc(N4CCOCC4)nc32)cn1` had a % of control in [1] of 5.65%.
For `COCC(=O)NC/C=C/c1ccc2ncnc(Nc3ccc(Oc4ccc(C)nc4)c(C)c3)c2c1` [CP-724714], the % of control in assay [2] came to 3%.
`CC(=O)c1cc(-c2ccccc2OCC2CC2)c2ncccn12` gave a % of control on Histamine H1 receptor of 107%.
In [3], `O=C(NOC[C@H](O)CO)c1ccc(F)c(F)c1Nc1ccc(I)cc1F` gave a % of control of 100%.
For `C=CC(=O)Nc1cccc(C(=O)Nc2ccc(Nc3cc(-c4[nH]c(SC)nc4C)ccn3)cc2)c1`, the % of control came out at 84% in [4] (at 1 µM) and 69% in [4] (at 5 µM).
In assay [5], `CN(C)CCOc1ccc(-c2nc(-c3ccncc3)c(-c3ccc4c(c3)CC/C4=N\O)[nH]2)cc1` had a % of control of 72%.
As for `O[C@H]1CC[C@H](Nc2ncc3nc(Nc4c(F)cc(F)cc4F)n([C@H]4CCOC4)c3n2)CC1`, the % of control in assay [6] was determined as 11%.
With `Nc1cnc(N2CCc3cc(S(=O)(=O)Nc4c(F)cc(Cl)cc4F)cc(N4CCCC4=O)c32)nc1` [TP-020n], the % of control in assay [7] stood at 98%.
Regarding `COc1cc(N(C)c2ccnc3ccc(C(F)(F)F)cc23)cc(OC)c1OC`, in assay [8], the % binding was found to be 81%.
